Data as given in PMC6934184, “Selective DNA-PKcs inhibition extends the therapeutic index of localized radiotherapy and chemotherapy” (The Journal of Clinical Investigation, 2019).

Biological target: T1, AMPK (A1/B1/G3) (Homo sapiens, UniProt Q13131)
T1 construct: purchased Thermo Fisher Scientific (Life Technologies) SelectScreen
Assay: SelectScreen LanthaScreen
Format: binding
Settings: read-out: % displacement
Method in brief: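 Percent values come from Thermo SelectScreen profiling of NU5455, combining activity and binding assays. CSF1R was run in Z'LYTE format at Km app ATP, and CAMK1 in Adapta format with ATP listed at 10.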

T1 sequence (Q13131 whole entry): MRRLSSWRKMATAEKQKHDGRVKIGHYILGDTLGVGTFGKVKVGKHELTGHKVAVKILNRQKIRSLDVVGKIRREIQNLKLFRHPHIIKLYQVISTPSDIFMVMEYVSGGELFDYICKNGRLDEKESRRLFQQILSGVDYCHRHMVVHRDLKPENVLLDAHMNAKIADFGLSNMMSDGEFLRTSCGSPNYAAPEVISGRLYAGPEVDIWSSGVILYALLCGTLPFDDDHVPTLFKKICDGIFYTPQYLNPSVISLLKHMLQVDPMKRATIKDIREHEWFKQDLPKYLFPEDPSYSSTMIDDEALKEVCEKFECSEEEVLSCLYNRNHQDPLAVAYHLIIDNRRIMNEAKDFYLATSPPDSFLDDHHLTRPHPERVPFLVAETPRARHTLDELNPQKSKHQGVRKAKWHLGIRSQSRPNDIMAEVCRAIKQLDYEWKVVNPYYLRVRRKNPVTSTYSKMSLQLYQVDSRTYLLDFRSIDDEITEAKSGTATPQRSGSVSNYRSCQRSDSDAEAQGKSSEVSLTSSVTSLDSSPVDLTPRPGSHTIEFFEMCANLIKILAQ
T1 sequence (Q9Y478 whole entry partner): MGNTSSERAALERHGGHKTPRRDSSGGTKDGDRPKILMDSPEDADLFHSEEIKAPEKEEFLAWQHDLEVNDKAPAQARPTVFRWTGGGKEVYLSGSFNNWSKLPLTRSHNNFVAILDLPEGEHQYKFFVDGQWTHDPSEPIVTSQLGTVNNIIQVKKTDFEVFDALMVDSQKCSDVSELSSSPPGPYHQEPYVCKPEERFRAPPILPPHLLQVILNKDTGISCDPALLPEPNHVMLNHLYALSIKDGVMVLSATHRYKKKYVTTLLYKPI
T1 sequence (Q9UGI9 whole entry partner): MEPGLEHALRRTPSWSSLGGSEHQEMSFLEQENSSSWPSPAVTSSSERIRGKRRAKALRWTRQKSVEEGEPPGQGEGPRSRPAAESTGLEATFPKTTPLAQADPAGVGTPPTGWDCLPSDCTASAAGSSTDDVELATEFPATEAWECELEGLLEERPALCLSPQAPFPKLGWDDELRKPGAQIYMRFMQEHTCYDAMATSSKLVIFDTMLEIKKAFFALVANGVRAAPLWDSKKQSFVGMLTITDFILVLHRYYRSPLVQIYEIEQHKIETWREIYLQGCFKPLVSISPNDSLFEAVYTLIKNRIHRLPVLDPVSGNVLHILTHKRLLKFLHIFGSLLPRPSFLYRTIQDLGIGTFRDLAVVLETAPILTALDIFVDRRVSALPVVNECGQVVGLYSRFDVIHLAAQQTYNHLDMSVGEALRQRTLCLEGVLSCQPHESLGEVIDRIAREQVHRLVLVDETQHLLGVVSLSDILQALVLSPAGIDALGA

CN(C(=O)CN1CCOCC1)c1ccc2sc3c(-c4cccc5c(=O)cc(N6CC7CCC(C6)O7)oc45)cccc3c2c1 [NU5455]
inhibition at 1 µM: 0.2%
